Assay results: the supplement of paper PMC10307832

How the values were obtained:
Test in all cases: relative viability (nuclei count vs DMSO), 5 days (fraction); higher = more cells survive
[1] = compound: CNC(=O)c1ccccc1Sc1ccc2c(/C=C/c3ccccn3)n[nH]c2c1 [Axitinib] + CC(C)C[C@H](NC(=O)[C@H](Cc1ccccc1)NC(=O)c1cnccn1)B(O)O [Bortezomib] (partner 0.002 µM)
Method in brief: (§1)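 Lung cancer cell lines in 1536-well plates got either a single drug or a fixed anchor-drug dose together with five library-drug doses (not always all listed) in √10 steps, by pin tool, on the day after seeding. Nuclei were counted after 5 days, and relative viability is the treated-to-vehicle ratio of nuclei counts. Values are medians of duplicate plates.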

[2] = compound: Nc1nc(Nc2ccc3c(c2)CC[C@@H](N2CCCC2)CC3)nn1-c1cc2c(nn1)-c1ccccc1CCC2 [Bemcentinib] + C[C@]1(O)C[C@@H](c2nc(-c3ccc4ccc(-c5ccccc5)nc4c3)c3c(N)nccn32)C1 [Linsitinib] (partner 1 µM)
Method in brief: as §1

[3] = compound: Nc1nc(Nc2ccc3c(c2)CC[C@@H](N2CCCC2)CC3)nn1-c1cc2c(nn1)-c1ccccc1CCC2 [Bemcentinib] + Cc1nc(NC(=O)N2CCC[C@H]2C(N)=O)sc1-c1ccnc(C(C)(C)C(F)(F)F)c1 [Alpelisib] (partner 2 µM)
Method in brief: as §1

[4] = compound: Nc1nc(Nc2ccc3c(c2)CC[C@@H](N2CCCC2)CC3)nn1-c1cc2c(nn1)-c1ccccc1CCC2 [Bemcentinib] + O=C(c1cc(Cc2n[nH]c(=O)c3ccccc23)ccc1F)N1CCN(C(=O)C2CC2)CC1 [Olaparib] (partner 8 µM)
Method in brief: as §1

NCI-H650
relative viability ([1]; first compound 0.005 µM): 0.739
relative viability ([1]; first compound 0.01581 µM): 0.944
relative viability ([1]; first compound 0.05 µM): 0.683
relative viability ([1]; first compound 0.1581 µM): 0.7
relative viability ([1]; first compound 0.5 µM): 0.816
relative viability ([2]; first compound 0.04 µM): 0.976
relative viability ([2]; first compound 0.1265 µM): 0.982
relative viability ([2]; first compound 0.4 µM): 0.974
relative viability ([2]; first compound 1.265 µM): 0.823
relative viability ([2]; first compound 4 µM): 0.774
relative viability ([3]; first compound 0.04 µM): 1.01
relative viability ([3]; first compound 0.1265 µM): 1.38
relative viability ([3]; first compound 0.4 µM): 1.22
relative viability ([3]; first compound 1.265 µM): 0.974
relative viability ([3]; first compound 4 µM): 1.06
relative viability ([4]; first compound 0.04 µM): 0.402
relative viability ([4]; first compound 0.1265 µM): 0.424
relative viability ([4]; first compound 0.4 µM): 0.42
relative viability ([4]; first compound 1.265 µM): 0.424
relative viability ([4]; first compound 4 µM): 0.36
